This data set can be described thus: Human HepG2 cell viability assay in 384 well format. In kind it is toxicity, cell-based. On the set-up: dose 125 nL, time 70.5 hour; cytotoxicity at 70.5 h: concentration not given beside the values. The note with it: HepG2 cells, read-out: Inhibition.

75 compounds from ChEMBL document CHEMBL3507680, “University of Dundee, Gates Library screen for HepG2 cell viability” can be followed below.

Molecules are shown by their SMILES.

For `CCc1nnc(Nc2cccc(C3CCN(C)CC3)n2)s1`, the cytotoxicity at 70.5 h came out at 35%. `c1cnc(C2CCCN2c2cnccn2)cn1` (stereo not given): the cytotoxicity at 70.5 h turned out to be 6.08%.

On to `CCc1nnc(Nc2cccc(C3CCN(C(C)=O)CC3)n2)s1`, for which the cytotoxicity at 70.5 h turned out to be 44.9%. With `CC(=O)N1CCCC1c1ccnc(Nc2cncnc2)n1` (stereo not given), the cytotoxicity at 70.5 h was -15.4%. With `Cc1nc(Nc2ncccn2)cc(C2CCCN2C(C)C)n1` (stereo not given) the figure was -14%. With `Cc1nc(Nc2cnccn2)cc(C2CCCN(C(C)C)C2)n1` (stereo not given) the figure was -8.23%; with `Cc1ccccc1S(=O)(=O)N1CCC(c2[nH]ncc2C)C1` (stereo not given), -8.88%. As to `COC(=O)N1CCCN(Cn2nc(C)c(Br)c2C)CC1`, the cytotoxicity at 70.5 h was 31.2%. For the compound `CCc1noc(CN2CCOC3(CCCC3)C2)n1`, the cytotoxicity at 70.5 h is -2.11%. With `COCCCNC(=O)CN(C)C(C)c1nc(C(C)C)no1` (stereo not given), the cytotoxicity at 70.5 h is -4.17%. The figure for `CCC(=O)N1CCCN(Cn2nc(C)c(Br)c2C)CC1` is -0.667%; for `O=C(CSCCN1CCOCC1)N1CCc2ccccc2C1` it is 17.6%; for `O=C(CSCCN1CCOCC1)N1CCCCCC1` it is 29.9%. In the case of `Cc1nc(CN2CCCC(C)(CO)C2)no1` (stereo not given), the cytotoxicity at 70.5 h is -4.42%. With `CC(=O)c1cc(Br)cc(F)c1OCC(=O)NC(C)C` the figure was -4.15%; with `Cn1ccnc1S(=O)(=O)C(C(=O)N1CCCCC1)c1ccccc1` (stereo not given), 23.2%; with `Cc1nn(C)c(C)c1NC(=O)CN1CCOC(CN(C)C)C1` (stereo not given), 5.23%. `Cc1cccc(-c2ccc(C(=O)N3CCN(C4CC4)CC3)c(=O)[nH]2)c1`: the cytotoxicity at 70.5 h was found to be 22.8%. The figure for `CC(=O)N1CCN(C(=O)c2ccc(-c3cccc(C)c3)[nH]c2=O)CC1` is -2.2%; for `COc1ccc(CN2CCC(C(N)=O)C2)c(Br)c1OC` (stereo not given) it is 0.0817%; for `COc1ccccc1CC(C)CC(=O)O` (stereo not given) it is -11.2%. With `CC(C)c1cc(NC(=O)CNC2CCc3nc(C(C)C)nn3C2)on1` (stereo not given) the figure was 4.46%. For the compound `CS(=O)(=O)CCn1ccc(NC(=O)Cc2c[nH]c3ccccc23)n1`, the cytotoxicity at 70.5 h came to 5.18%. The figure for `O=S(=O)(CCc1ccccc1Cl)CC(O)CO` (stereo not given) is -0.491%. Regarding `O=C(C(c1ccccc1)S(=O)(=O)c1ccccc1)N1CCCCC1` (stereo not given), the cytotoxicity at 70.5 h came out at 3.14%.

Turning to `O=S(=O)(Cc1cccc(F)c1)Nc1cc(Cl)ccn1`, the cytotoxicity at 70.5 h was found to be 2.91%.

As for `O=C(NCc1ccon1)c1c(F)cc(Br)cc1F`, the cytotoxicity at 70.5 h was -3.14%.

`NC(=O)c1cn(CC2CC2)c(C2CC2)n1`: the cytotoxicity at 70.5 h was -7.32%.

Take `Cc1cccc(NC(=O)NC2CCC3(C2)OCCO3)c1Cl` (stereo not given): the cytotoxicity at 70.5 h was -6.97%. With `Cn1ccnc1CNC1CCCOc2c1ccc1ccccc21` (stereo not given) the figure was -6.96%; with `O=S(=O)(N1CCCCCC1)N1CCCN(CC2CCCO2)CC1` (stereo not given), -1.63%; with `Cc1cc2ccccc2n1CC(=O)NC(C)C(=O)N1CCOCC1` (stereo not given), -8.04%.

Regarding `O=C(Nc1ccccc1-c1ccccc1)NC1CCC2(C1)OCCO2` (stereo not given), the cytotoxicity at 70.5 h turned out to be 27.5%. The figure for `CCOC(C)c1nccn1Cc1c(C)noc1C` (stereo not given) is -2.96%; for `Cc1csc(CNc2cnc3c(c2)c(C)nn3C)n1` it is 12.8%; for `CC(C)(C)c1cnc(CN2CCCS2(=O)=O)o1` it is -1.12%. On to `Cc1ccc(OCc2cccc(C(=O)N(C)CCC#N)c2)cn1`, for which the cytotoxicity at 70.5 h was determined as 0.941%.

For `CC(=O)C(Cc1ccccc1)NC(=O)CSc1nncn1C` (stereo not given), the cytotoxicity at 70.5 h was -5.49%.

Turning to `COCCN(Cc1coc(-c2cccc(Cl)c2)n1)C1CC1`, the cytotoxicity at 70.5 h is -4.43%.

On to `Cc1cc(N(Cc2ccccc2F)C2CC2)n2nc(C(F)(F)F)nc2n1`, for which the cytotoxicity at 70.5 h was -1.77%. `CN(C)C(=O)Cc1ccccc1NCc1nc(Cc2ccccc2)no1`: the cytotoxicity at 70.5 h is -0.0229%. The figure for `Cc1noc(CNc2ccccc2CC(=O)N(C)C)n1` is -4.56%; for `Cc1[nH]ncc1CCCNC(=O)N1CCC(C(N)=O)CC1` it is -4.17%.

As for `Fc1cccc2c1CCC2NCc1cnc(N2CCOCC2)nc1` (stereo not given), the cytotoxicity at 70.5 h was -1.25%. With `CC(NCCn1cccn1)c1ccccc1F` (stereo not given), the cytotoxicity at 70.5 h is -0.726%. With `CC(C)Cc1noc(CNc2ccccc2CC(=O)N(C)C)n1` the figure was -3.15%; with `COCCN(Cc1coc(-c2ccc(OC)cc2)n1)C1CC1`, -1.17%; with `O=C(CSCc1ccncc1)NCC1CCN(C2CC2)C1` (stereo not given), 1.83%. Regarding `CC(C)c1cnc(CN2CCCS2(=O)=O)o1`, the cytotoxicity at 70.5 h is -1.78%. With `CCC(O)(CNCc1ncc[nH]1)c1ccc(Br)cc1` (stereo not given) the figure was -1.16%. The figure for `CCc1ccc(C(=O)N2CCCC(c3nn[nH]n3)C2)cc1` (stereo not given) is -3.67%. The figure for `CCCc1n[nH]c(C2CN(CCNC3CCCCC3)CCO2)n1` (stereo not given) is 9.34%. Consider `Cc1ncsc1C(=O)NCC1SCCc2ccccc21` (stereo not given), for which the cytotoxicity at 70.5 h amounted to 6.22%. With `Cc1cc(CN(C)C(=O)Nc2cnc3c(c2)c(C)nn3C)no1` the figure was -8.11%; with `CC(C)N(C)C(=O)C1CSCN1S(=O)(=O)c1cc(Cl)ccc1Cl` (stereo not given), 11.9%; with `CC(C)(C)OC(=O)NCC1CCN(C(=O)c2cc(Cl)c[nH]2)CC1`, -14.2%. Regarding `CC(C)N(C)C(=O)C1CSCN1S(=O)(=O)c1cccs1` (stereo not given), the cytotoxicity at 70.5 h is -8.56%. Take `COc1ccccc1CC1CCCN(C(=O)c2cc[nH]n2)C1` (stereo not given): the cytotoxicity at 70.5 h was -6.57%.

Turning to `O=C(O)CCCc1ccc2c(c1)CC(=O)N2`, the cytotoxicity at 70.5 h was -9.78%. With `CC1CCCCN1S(=O)(=O)NCCN/C(O)=C1/N=CC=CC1=O` (stereo not given) the figure was -5.82%; with `CC(NC(=O)NCCC(=O)OC(C)(C)C)c1nncn1C` (stereo not given), -0.412%. The figure for `CC(C(=O)Nc1cccc(Cl)c1SC(F)F)S(C)(=O)=O` (stereo not given) is -3.11%; for `CC(C(=O)Nc1ccccc1Sc1ccccc1)S(C)(=O)=O` (stereo not given) it is -3.46%. As for `CC(CNC(=O)c1ccncc1F)Oc1ccc(F)cc1` (stereo not given), the cytotoxicity at 70.5 h is -0.61%. The figure for `COCCC1(CNC(=O)Nc2ccc(-n3nccn3)cc2)CCC1` is 13.3%; for `OC1(CNCc2cnc(N3CCOCC3)nc2)CCCCC1` it is -5.66%. The figure for `COCCC1(CNC(=O)Nc2ccc(-n3cccn3)cc2)CCC1` is 2.32%; for `CC(C)S(=O)(=O)CCN1CCc2c(ncn2C2CC2)C1` it is 3.39%; for `O=C(O)CC(NC(=O)CCCc1cccs1)c1ccc(F)cc1` (stereo not given) it is -2.27%. For the compound `COc1ccc(CN(Cc2cc(C)no2)C2CC2)cc1`, the cytotoxicity at 70.5 h amounted to 0.248%. The figure for `CN1CCOC(CNCCCOc2ccc(C#N)cc2)C1` (stereo not given) is -5.34%; for `Cc1cccc(N2CCN(CCS(=O)(=O)c3ccc(Br)cc3)CC2)c1C` it is -9.15%. The figure for `Cc1ccccc1N1CCN(CCS(=O)(=O)c2ccc(Br)cc2)CC1` is 16%; for `O=S(=O)(CCN1CCN(c2ccccc2O)CC1)c1ccc(Br)cc1` it is -8.18%; for `FC(F)Oc1ccc(CNCc2cc(Cl)c3c(c2)OCO3)cc1` it is -5.5%.
